Laboratory results taken from US20180072675A1, “ANTIMICROBIAL PYRIDINOHYDRAZIDE AND HYDRAZOMETHYLPYRIDINE-BASED AGENTS” (Board of Supervisors of Louisiana State University and …, priority 2015, published 2018).
Values after ≈ are worked out from the molar mass of the structure shown. “Also recorded” adds a separate entry of the source.

Key:
[1] = tested on: Candida glabrata (ATCC Accession No. 48435); experiment: MIC80 fungal growth inhibition, C. glabrata ATCC 48435; type: cell-based; conditions: Azole-resistant, >80% growth inhibition, visual scoring; for MIC80: Nakaseomyces glabratus, ATCC48435, read-out: MIC80 C. glabrata ATCC No. 48435
Method: (§1) The antifungal activity of the pyridinohydrazide and hydrazomethylpyridine derivatives described in the s were evaluated in vitro using Candida albicans (ATCC Accession No. 10231) and Candida glabrata (ATCC Accession No. 48435). In addition, the compounds were evaluated for activity against two previously-described clinical isolates of C. albicans known to have developed azole-resistance. These isolates were obtained over a two year period from a single AIDS patient and the development of the azole-resistance mechanisms have been extensively characterized (White T C. Antimicrob. Agents Chemother. (1997) 41: 1482-1487). MIC assays were performed on the clinical isolates 1 and 17 (annotated TW1 and TW17, respectively), where isolate 1 was used as an azole-susceptible control and isolate 17 was considered azole-resistant. All assays were done in accordance with NCCLS reference documents (Clinical Laboratory and Standards Institute. Reference method for Broth Dilution Antifungal Susceptibility Testing of Yeasts: Approved Standard. M27-A3 2010; 28). The results of these screenings are summarized in Tables 1-9 (Examples 20-27) as the minimum concentrations that inhibited more than 80% of fungal growth (MIC80) as compared to positive controls containing 1% DMSO. Assays were performed in HEPES-buffered RPMI-1640 media. All MIC screens used a visual scoring method as opposed to spectroscopic analysis, due to the altered absorbance spectra of many of the compounds.

[2] = tested on: Candida spp.; experiment: MIC studies, statements pooled over several isolates; type: cell-based, Candida albicans, Candida glabrata; conditions: for antifungal activity (in words): overall over the isolates tested
Method: as §1

[3] = tested on: C. albicans clinical isolate 1 (TW1); experiment: MIC80 fungal growth inhibition, clinical isolate TW1; type: cell-based, Candida albicans; conditions: Azole-susceptible, >80% growth inhibition, visual scoring; for MIC80: Candida albicans, read-out: MIC80 TW1
Method: as §1

[4] = tested on: Candida albicans (ATCC Accession No. 10231); experiment: MIC80 fungal growth inhibition, C. albicans ATCC 10231; type: cell-based; conditions: Azole-susceptible, >80% growth inhibition, visual scoring; for MIC80: Candida albicans, ATCC10231, read-out: MIC80 C. albicans ATCC No. 10231
Method: as §1

[5] = tested on: protozoal proliferation; experiment: Protozoal proliferation; type: cell-based; conditions: FIG. 27
[6] = tested on: C. albicans clinical isolate 17 (TW17); experiment: MIC80 fungal growth inhibition, clinical isolate TW17; type: cell-based, Candida albicans; conditions: Azole-resistant, >80% growth inhibition, visual scoring; for MIC80: Candida albicans, read-out: MIC80 TW17
Method: as §1

[7] = tested on: Hep G2 (liver) cells; experiment: Mammalian cell toxicity, Promega CellTiter 96, liver cells; type: cell-based; conditions: through 10× MIC, 24 h
Method: (§2) Cytotoxicity was determined using non-cancerous Vero cells (kidney-african green monkey) and liver cells (Hep-2G) in accordance with Promega CellTiter 96 Non-Radioactive Cell Proliferation Assay (cat # G4000). Compounds were diluted in media and all assays were done in triplicate. Average values are presented, with ±SD. Cells were incubated in the presence of the compounds for 24 h at 37° C. and 5% CO2. Tetrazolium dye solution was added to each well and allowed to incubate for 1-4 h. Solubilization/Stop solution was added and allowed to sit at room temperature for 1 h. Formazan product was scored spectrophotometrically with an automatic plate reader set at 570 nm. Positive control wells for cell death were briefly treated with 0.1% saponin, immediately prior to the addition of dye solution. Wells containing 1% DMSO and no drug were used as a negative control and the average absorbance at 570 nm were set to 100%. The percent of cells viable were calculated as a ratio between the average absorption at 570 nm of the drug containing wells/average absorption at 570 nm of the control (no drug). Ratios were multiplied by 100 to give the values as a percentage as expressed on the y-axis.
(§3) Cytotoxicity studies were performed in accordance with Promega CellTiter 96 Non-RadioactivCell Proliferation Assay (cat #G4000). All cytotoxicity studies used a negative control (wells of either kidney or liver cells containing 1% DMSO but lacking the analog), a positive control (wells of either kidney or liver cells treated with the known cytotoxic agent, saponin) and the serial dilutions of the novel analogs. All control (negative) wells were normalized to 100% viable cells to accurately show the percentage of either liver or kidney cells that remained alive and viable following either overnight incubation with the analogs or 5-minute treatment with 0.1% saponin.

[8] = tested on: Vero (kidney) cells; experiment: Mammalian cell toxicity, Promega CellTiter 96, kidney cells; type: cell-based; conditions: through 10× MIC, 24 h
Method: as §2, §3

[9] = tested on: Candida albicans ATCC Accession No. 10231; experiment: Checkerboard synergy assay with fluconazole; type: cell-based; conditions: for FIC Fluc: average FIC of fluconazole at varying concentrations of the test drug; for FIC Test: average FIC of the test drug at varying concentrations of fluconazole; for Activity (interaction with fluconazole): from FIC index; for FIC Index: sum of the two FICs, <1 synergistic, >=1 antagonistic
Method: Considering that two different modes of activity (cidal and static) were observed depending on the structural motifs present in our analogs, we performed a series of checkerboard assays to determine if representative active compounds were in fact acting in synergy with the azole, fluconazole. Each of these assays tested multiple concentrations of the selected analog in the presence of multiple concentrations of fluconazole. All checkerboard assays were prepared in 96-well plates. 200 μl of previously prepared drug solutions were added to each well in column 2. Using a multichannel pipette, 100 μl from each well in column 2 was serially diluted (1:2) horizontally across the plate, stopping at column 10. Contents of each well were mixed thoroughly. Column 11 was reserved for fluconazole MIC control and contained no other drug. 100 μl of media was added to each well, column 2-10. Each well was mixed thoroughly with a multichannel pipette. 100 μl was then removed and discarded from these wells. 100 μl of previously prepared fluconazole dilution was added to each well in row B. Using a multichannel pipette, 100 μl from each well was serially diluted (1:2) vertically down the plate, stopping at row F. Contents of each well were mixed thoroughly. Row G was reserved for tested drug MIC control and contained no fluconazole. Well G11 contained neither drug and served as a drug-free growth control. The final 100 μl from each well in row F was discarded.
The fungal samples were prepared from glycerol stocks of Candida albicans ATCC Accession No. 10231. The inoculum's concentration was adjusted to a McFarland standard between 0.08 and 0.12. Inoculum was then diluted at a ratio of 1:37.5 in buffered media. 100 μl of inoculum-media solution was added to each well. Following inoculation, the 96-well plates were wrapped in parafilm to prevent evaporation and incubated for overnight at 35° C. After 18 h, the wells showing growth were recorded.
Synergistic activity was determined based on the MIC read from these plates. The fractional inhibitory concentration (FIC) for a given well is the ratio of the minimum inhibitory concentration of one drug A in the presence another drug B to the minimum inhibitory concentration with only drug A. The FIC was calculated for the test drug in each of the wells along the growth/no-growth interface at varying concentrations of fluconazole, then these values were averaged to determine the average FIC for the test drug. The same process was used to calculate the average FIC for fluconazole at varying concentrations of the test drug. The sum of these two FICs gives the FIC index which can be used to determine the synergistic effect between the two drugs (Hsieh et al., Diagn. Microbiol. Infect. Dis. (1993) 16: 343-349). An FIC index value less than 1 indicated synergistic interactions between the two drugs while an FIC index value greater than or equal to 1 indicated antagonistic interactions.

[10] = tested on: Candida strain TW17; experiment: Time-kill assay; type: cell-based, Candida albicans; conditions: four times the MIC for TW17, 48 h
Method: FIG. 9 illustrates time-kill assays, for representative analogs that were active against the azole-resistant TW17, to determine the cidal or static nature of the analog tested. 100 μl of each sample was spread onto YM agar plates with a sterile bent spreading rod. Plates were incubated at 35° C. overnight and colonies were then counted on each plate.
One of the objectives of this study was to determine the cidal or static nature of the analogs that were active against such as TW17, the azole-resistant clinical isolate. Azoles affect Candida spp. by inhibiting ergosterol biosynthesis, and ultimately prevent their reproduction. This effect has led to the classification of azoles as fungistats. Determining the fungistatic or fungicidal nature of the synthesized compounds of the present disclosure allows a comparison to azoles, in addition to improving the understanding of how the structural motifs might lend toward an alternate mechanism of action. Therefore, time-kill assays were performed using the representative analogs that were active against the azole-resistant TW17 at concentrations at or below 8 μg/mL.
Solid drugs were dissolved in DMSO to a concentration of 10 mg/ml. This stock solution was then further diluted in water to the desired experimental concentration, determined to be four times that of the MIC for the Candida strain TW17 (as reported in the Tables).
Individual colonies of TW17 were suspended in 5 ml of sterile water and adjusted to achieve a McFarland reading between 0.08 and 0.12. The inoculum was then further diluted in sterile water at a ratio of 1:100. Three […] tissue culture tubes were prepared by combining 2.5 ml of above diluted inoculum, 21.7 ml of HEPES buffered RPMI-1640 media, and 800 μl of experimental drug dilution. A “Growth Control” tube was prepared by combining 2.5 ml of inoculum, 21.7 HEPES buffered RPMI-1640 media, and 800 μl of water-DMSO solution equal to the DMSO concentration of the experimental drug dilution. A “Sterile Control” tube was prepared by combining 24.2 ml of HEPES-buffered RPMI-1640 media and 800 μl of water-DMSO solution as in the “Growth Control”. All tubes were incubated for 48 hours at 35° C., 50 rpm. 500 μl samples were taken from the tubes at time points of predetermined intervals during this incubation.
Time points for the “Kill-Curve” and “Growth Control” tubes were taken at 0, 1, 2, 4, 6, 8, 24, and 48 h after the start of incubation. Time points for “Sterile Control” were taken at 0 and 48 hours. Each time point sample was serially diluted 1:10 in sterile 0.9% NaCl solution up to 5 times. 100 μl of each sample was spread onto YM agar plates with a sterile bent spreading rod. Plates were incubated at 35° C. overnight and colonies were then counted on each plate. Colonies on plates from diluted time points were used to estimate uncountable undiluted samples. The number of colonies in undiluted samples was estimated to be 10^n times greater than the diluted sample, where n was the number of dilutions made.

| Compound | MIC80 C. glabrata ATCC No. 48435 [1] | MIC80 TW1 [3] | MIC80 C. albicans ATCC No. 10231 [4] | effect on protozoal proliferation [5] | MIC80 [1] | MIC80 [3] | MIC80 [4] | MIC80 [6] | further results |
| --- | --- | --- | --- | --- | --- | --- | --- | --- | --- |
| Cc1ccc(O)c(/C=N/NC(=O)c2cccnc2)c1 [AR8] | 8 µg/mL (≈ 31.3 µM) | 16 µg/mL (≈ 62.7 µM) | 4 µg/mL (≈ 15.7 µM) |  |  |  |  |  | activity against azole-resistant isolates (in words) ([2]; azole-resistant isolates): less active |
| O=C(N/N=C/c1cc([N+](=O)[O-])ccc1O)c1ccncc1 [SA113] |  |  |  | reduce protozoal proliferation |  |  |  |  |  |
| O=C(N/N=C/c1cc(Cl)ccc1O)c1ccccn1 [AR4, (E)-N′-(5-Chloro-2-hydroxybenzylidene)picolinohydrazide] |  |  |  | reduce protozoal proliferation | 1 µg/mL (≈ 3.63 µM) | 4 µg/mL (≈ 14.5 µM) | 1 µg/mL (≈ 3.63 µM) | 8 µg/mL (≈ 29 µM) |  |
| O=C(N/N=C/c1ccccc1O)c1cccnc1O [AR19] |  |  |  |  | 1 µg/mL (≈ 3.89 µM) | 4 µg/mL (≈ 15.5 µM) |  | 4 µg/mL (≈ 15.5 µM) | growth inhibition (in words) ([2]; across all Candida albicans isolates): growth inhibition was observed at very low concentrations; cell toxicity [7]: minimal toxicity; cell toxicity [8]: minimal toxicity |
| O=C(NN=Cc1ccccn1)c1ccccn1 [AR34] | 16 µg/mL (≈ 70.7 µM) | 16 µg/mL (≈ 70.7 µM) | 31 µg/mL (≈ 137 µM) |  |  |  |  |  | antifungal activity (in words) [2]: moderate activity; MIC80 TW17 [6]: 16 µg/mL (≈ 70.7 µM) |
| O=C(N/N=C/c1cc([N+](=O)[O-])ccc1O)c1ccccn1 [AR6, (E)-N′-(2-hydroxy-5-nitrobenzylidene)picolinohydrazide] |  |  |  |  | 8 µg/mL (≈ 27.9 µM) | 8 µg/mL (≈ 27.9 µM) | 4 µg/mL (≈ 14 µM) | 8 µg/mL (≈ 27.9 µM) | FIC Fluc [9]: 1.00; FIC Test [9]: 1.00; Activity (interaction with fluconazole) [9]: Antagonistic; FIC Index [9]: 2.00; Cidal vs Static [10]: Static |
| C(=NNc1ccccc1)c1ccccn1 [AR29] | 31 µg/mL (≈ 157 µM) | 16 µg/mL (≈ 81.1 µM) | 16 µg/mL (≈ 81.1 µM) |  |  |  |  |  | antifungal activity (in words) [2]: moderate activity; MIC80 TW17 [6]: 16 µg/mL (≈ 81.1 µM) |
| O=C(N/N=C/c1cc(Br)ccc1O)c1ccccn1 [AR5, (E)-N′-(5-bromo-2-hydroxybenzylidene)picolinohydrazide] |  |  |  | reduce protozoal proliferation | 4 µg/mL (≈ 12.5 µM) | 2 µg/mL (≈ 6.25 µM) | 1 µg/mL (≈ 3.12 µM) | 4 µg/mL (≈ 12.5 µM) | FIC Fluc [9]: 1.00; FIC Test [9]: 0.90; Activity (interaction with fluconazole) [9]: Antagonistic; FIC Index [9]: 1.90; Cidal vs Static [10]: fungicidal; also recorded: Cidal |
